Measured values as given in patent US7973219B2, “Method for producing transgenic plants resistant to weed control compounds which disrupt the porphyrin pathways of plants” (Sumitomo Chemical Company, Limited, priority 1998, dated 2011).
Like-named read-outs stand apart in the source and are kept apart here.

Tests used:
[1] = system: E. coli BT3/pACYCSP+pTVBCH strain; assay: Growth of E. coli BT3/pACYCSP+pTVBCH (bchH) with herbicidal compound; format: cell-based; conditions: Escherichia coli, 18 h, 18 hours culture, Table 2
From the text: According to the description of Gibson, L. C. D. et al., Proc. Natl. Acad. Sci. USA, 92; p 1941 (1995), the DNA fragment containing bchH gene prepared in Example 1 was digested with the restriction enzymes NdeI and BglII. The resultant DNA fragment was inserted between NdeI restriction site and BamHI restriction site of expression vector pET11a (manufactured by Stratagene) to obtain plasmid pETBCH (FIG. 1). This plasmid pETBCH was introduced into E. coli BL21(DE3) strain competent cells (manufactured by Stratagene) according to the manual attached to the competent cells to obtain E. coli BL21(DE3)/pETBCH strain. The strain was inoculated into 1.5 ml LB liquid culture medium (1% tryptone, 0.5% yeast extract, 0.5% NaCl) containing 100 μg/ml ampicillin in a tube (14×10 mm), and the tube was covered with aluminum foil (hereinafter referred to as dark conditions), cultured with shaking at 37° C. under light of fluorescent lamp (about 8000 lux). When the absorbance at 600 nm of the liquid culture medium became about 0.6, isopropyl β-D-thiogalactopyranoside (IPTG) was added to the liquid culture medium so that the final concentration was 0.4 mM, and the culture was continued for about additional 20 hours. […] In contrast to this, when E. coli BL21(DE3)/pETBCH strain was cultured according to the same manner (with IPTG) except that the tube was not covered with aluminum foil (hereinafter referred to as light conditions), E. coli grew and turned red as above. […]
These strains were inoculated into YPT medium containing 10 or 1 ppm of the PPO inhibitory-type herbicidal compound represented by the above Structure 8, 100 μg/ml ampicillin, 15 μg/ml chloramphenicol, 10 μg/ml kanamycin, 10 μg/ml hemin and 50 μg/ml aminolevulinic acid, cultured under dark conditions or light conditions according to the same manner as in Example 2. Then, 18 hours after initiation of culture, the absorbance of the liquid culture medium was measured at 600 nm. By taking the absorbance of the medium without the herbicidal compound as 1, the relative value of the absorbance of the medium containing the herbicidal compound was calculated.
Further, these strains were inoculated into YPT medium containing PPO inhibitory-type herbicidal compounds represented by the above Structures 1, 14, 15, 18-22, 29, 32, 33, 34 and 36, respectively, 100 μg/ml ampicillin, 15 μg/ml chloramphenicol, 10 μg/ml kanamycin, 10 μg/ml hemin and 50 μg/ml aminolevulinic acid, cultured under dark conditions or light conditions similar to the Example 2. Then, 18 hours after initiation of culture, the absorbance of liquid culture medium was measured at 600 nm. By taking the absorbance of the medium without the herbicidal compound as 1, the relative value of the absorbance of the medium containing the herbicidal compound was calculated.

[2] = system: E. coli BT3/pACYCSP+pRASSL strain; assay: Growth of E. coli BT3/pACYCSP+pRASSL with herbicidal compound; format: cell-based, Escherichia coli; conditions: 1 ppm, 18 hours culture, Table 15
From the text: According to the description of Gibson, L. C. D. et al., Proc. Natl. Acad. Sci. USA, 92; p 1941 (1995), the DNA fragment containing bchH gene prepared in Example 1 was digested with the restriction enzymes NdeI and BglII. The resultant DNA fragment was inserted between NdeI restriction site and BamHI restriction site of expression vector pET11a (manufactured by Stratagene) to obtain plasmid pETBCH (FIG. 1). This plasmid pETBCH was introduced into E. coli BL21(DE3) strain competent cells (manufactured by Stratagene) according to the manual attached to the competent cells to obtain E. coli BL21(DE3)/pETBCH strain. […] When the absorbance at 600 nm of the liquid culture medium became about 0.6, isopropyl β-D-thiogalactopyranoside (IPTG) was added to the liquid culture medium so that the final concentration was 0.4 mM, and the culture was continued for about additional 20 hours. […]
These E. coli strains were inoculated into YPT medium containing 1 ppm of the PPO inhibitory-type herbicidal compound represented by Structure 8, 100 μg/ml ampicillin, 15 μg/ml chloramphenicol, 10 μg/ml kanamycin, 10 μg/ml hemin and 50 μg/ml aminolevulinic acid, cultured under dark conditions or light conditions according to the same manner as in Example 2. Then, 18 hours after initiation of culture, the absorbance of liquid culture medium was measured at 600 nm. […]

[3] = read-out: Relative absorbance, in the dark
[4] = read-out: Relative absorbance, in the light

Compound: C#CCOc1cc(N2C(=O)C3=C(CCCC3)C2=O)c(F)cc1Cl [Structure 8]
- activity at 1 ppm [1, 3]: 106%
- activity at 10 ppm [1, 3]: 90%
- activity at 1 ppm [1, 4]: 77%
- activity at 10 ppm [1, 4]: 80%
- Relative absorbance ([2]; in the dark): 1.0
- Relative absorbance ([2]; in the light): 0.59
